Experimental findings from patent US5310726A, “Lipopeptide compounds” (Merck & Co., Inc., priority 1990, dated 1994) are described below.

Data set [1] can be described thus: Stability in aqueous media. The format is physicochemical. Particulars: physiological pH range.
A further data set relates to Candida tropicalis. Briefly: Microdilution broth assay, minimum fungicidal concentration. It is filed as cell-based. Conditions: Candida tropicalis MY 1012. As for the experimental part:
The usefulness of the compounds as antifungal agents particularly, for the treatment of mycotic infections may be illustrated with minimum fungicidal concentration (MFC) results with Compound IA in tests against Candida albicans, Candida tropicalis and Candida parapsilosis. The activity may be seen in a microdilution broth assay employing Yeast Nitrogen Base (Difco) with 10% dextrose (YNBD) as the medium. […] The compounds were then diluted to 256 μg/ml in YNBD. 0.15 ml of the suspension was dispensed to the top row of a 96-well plate (each well containing 0.15 ml of YNDB) resulting in a drug concentration of 128 μg/ml. Two-fold dilutions were then made from the top row to obtain final drug concentrations ranging from 128 to 0.06 μg/ml. The yeast cultures, maintained on Sabouraud dextrose agar were transferred to YM broth (Difco) and incubated overnight at 35° C. with shaking (250 rpm). After incubation, each culture was diluted in sterile water to yield a final concentration of 1-5×10^6 colony forming units (CFU)/ml. 96-well microplates were inoculated using a MIC-2000 (Dynatech) which delivers […] per well yielding a final inoculum per well of 1.5-7.5×10^3 cells. […] The minimum inhibitory concentrations (MICS) were recorded as the lowest concentrations of drug showing no visible growth. […] The inoculated trays were incubated 24 hours at 28° C. and then read. […]
Background: Broth dilution looks for growth in wells or tubes with falling amounts of substance.

The next data set deals with Candida albicans. Described as above. The format is cell-based. From the text:
(§1) The usefulness of the compounds as antifungal agents particularly, for the treatment of mycotic infections may be illustrated with minimum fungicidal concentration (MFC) results with Compound IA in tests against Candida albicans, Candida tropicalis and Candida parapsilosis.
(§2) The activity may be seen in a microdilution broth assay employing Yeast Nitrogen Base (Difco) with 10% dextrose (YNBD) as the medium. In carrying out the assay, Compound Ia was solubilized in 10 percent dimethyl sulfoxide (DMSO) and diluted to 2560 μg/ml. The compounds were then diluted to 256 μg/ml in YNBD. 0.15 ml of the suspension was dispensed to the top row of a 96-well plate (each well containing 0.15 ml of YNDB) resulting in a drug concentration of 128 μg/ml. Two-fold dilutions were then made from the top row to obtain final drug concentrations ranging from 128 to 0.06 μg/ml.
(§3) The yeast cultures, maintained on Sabouraud dextrose agar were transferred to YM broth (Difco) and incubated overnight at 35° C. with shaking (250 rpm). After incubation, each culture was diluted in sterile water to yield a final concentration of 1-5×10^6 colony forming units (CFU)/ml.
(§4) 96-well microplates were inoculated using a MIC-2000 (Dynatech) which delivers […] per well yielding a final inoculum per well of 1.5-7.5×10^3 cells. The microplates were incubated at 35° C. for 24 hours. The minimum inhibitory concentrations (MICS) were recorded as the lowest concentrations of drug showing no visible growth.
(§5) After recording the MIC, the plates were shaken to resuspend the cells. Thereafter, […] samples from the wells in the 96-well microplate were transferred to a single well tray containing Sabouraud dextrose agar. The inoculated trays were incubated 24 hours at 28° C. and then read. The MFC is defined as the lowest concentration of drug showing no growth or less than 4 colonies per spot.

The next data set relates to Candida parapsilosis. The data set is described as above. It is filed as cell-based.
Description: as §1, §2, §3, §4, §5

Regarding “1-[4-hydroxy-N^2 -(10,12-dimethyl-1-oxo-tetradecyl)ornithine]-4-[3-hydroxy-homotyrosine]-5- [3-hydroxy-glutamine]echinocandin B [Compound Ia]”, the “stability in aqueous medium” value in data set [1] is listed as “exhibit the stability in aqueous medium desired”. In addition, the “Minimum Fungicidal Concentration” value in the data set with Candida tropicalis worked out at 1 µg/mL; in the data set with Candida albicans (Candida albicans MY 1028) it was 0.5 µg/mL; in the data set with Candida albicans (Candida albicans MY 1055), 1 µg/mL; in the data set with Candida albicans (Candida albicans MY 1208), 2 µg/mL; in the data set on Candida albicans (Candida albicans MY 1585), 0.25 µg/mL; in the data set with Candida albicans (Candida albicans MY 1750), 0.25 µg/mL. Moreover, the “Minimum Fungicidal Concentration” value in the data set on Candida albicans (Candida albicans MY 1783) was 0.5 µg/mL; in the data set on Candida parapsilosis (Candida parapsilosis MY 1008) it was 8 µg/mL; with Candida parapsilosis (Candida parapsilosis MY 1010), 4 µg/mL.

As for “1-[4-hydroxy-N^2 -(10,12-dimethyl-1-oxo-tetradecyl)ornithine]-5-[3-hydroxy-glutamine]echino candin B [Compound Ib]”, the “stability in aqueous medium” value in data set [1] was “exhibit the stability in aqueous medium desired”.
